# Target: T1, recombinant human CL receptor/RAMP1 (Homo sapiens, UniProt O60894+Q16602)
# T1 construct: expressed in transfected cells; membranes
# Assay: RECOMBINANT RECEPTOR BINDING ASSAY (125I-hCGRP)
# Conditions: 125I-hCGRP binding to membranes of HEK 293 cells expressing recombinant human CL receptor/RAMP1; stated as 'generally ... less than about'
# Experimental: RECOMBINANT RECEPTOR: Human CL receptor (Genbank accession number L76380) was subcloned into the expression vector pIREShyg2 (BD Biosciences Clontech) as a 5′NheI and 3′ PmeI fragment. Human RAMP1 (Genbank accession number AJ001014) was subcloned into the expression vector pIRESpuro2 (BD Biosciences Clontech) as a 5′NheI and 3′NotI fragment. HEK 293 cells (human embryonic kidney cells; ATCC #CRL-1573) were cultured in DMEM with 4.5 g/L glucose, 1 mM sodium pyruvate and 2 mM glutamine supplemented with 10% fetal bovine serum (FBS), 100 units/mL penicillin and 100 μg/mL streptomycin, and maintained at 37° C. and 95% humidity. Cells were subcultured by treatment with 0.25% trypsin with 0.1% EDTA in HBSS. Stable cell line generation was accomplished by co-transfecting 10 μg of DNA with 30 μg Lipofectamine 2000 (Invitrogen) in 75 cm^2 flasks. CL receptor and RAMP1 expression constructs were co-transfected in equal amounts. Twenty-four hours after transfection the cells were diluted and selective medium (growth medium+300 μg/mL hygromycin and 1 μg/mL puromycin) was added the following day. A clonal cell line was generated by single cell deposition utilizing a FACS Vantage SE (Becton Dickinson). Growth medium was adjusted to 150 μg/mL hygromycin and 0.5 μg/mL puromycin for cell propagation.
# RECOMBINANT RECEPTOR BINDING ASSAY: Cells expressing recombinant human CL receptor/RAMP1 were washed with PBS and harvested in harvest buffer containing 50 mM HEPES, 1 mM EDTA and Complete protease inhibitors (Roche). The cell suspension was disrupted with a laboratory homogenizer and centrifuged at 48,000 g to isolate membranes. The pellets were resuspended in harvest buffer plus 250 mM sucrose and stored at −70° C. For binding assays, 20 μg of membranes were incubated in 1 ml binding buffer (10 mM HEPES, pH 7.4, 5 mM MgCl2, and 0.2% BSA) for 3 hours at room temperature containing […] ^125I-hCGRP (GE Healthcare) and antagonist. The assay was terminated by filtration through 96-well GFB glass fiber filter plates (PerkinElmer) that had been blocked with 0.05% polyethyleneimine. The filters were washed 3 times with ice-cold assay buffer (10 mM HEPES, pH 7.4 and 5 mM MgCl2). Scintillation fluid was added and the plates were counted on a Topcount (Packard). Non-specific binding was determined and the data analysis was carried out with the apparent dissociation constant (Ki) determined by using a non-linear least squares fitting the bound CPM data to the equation below:
# [formula] […]
# T1 sequence (Q16602 23-461): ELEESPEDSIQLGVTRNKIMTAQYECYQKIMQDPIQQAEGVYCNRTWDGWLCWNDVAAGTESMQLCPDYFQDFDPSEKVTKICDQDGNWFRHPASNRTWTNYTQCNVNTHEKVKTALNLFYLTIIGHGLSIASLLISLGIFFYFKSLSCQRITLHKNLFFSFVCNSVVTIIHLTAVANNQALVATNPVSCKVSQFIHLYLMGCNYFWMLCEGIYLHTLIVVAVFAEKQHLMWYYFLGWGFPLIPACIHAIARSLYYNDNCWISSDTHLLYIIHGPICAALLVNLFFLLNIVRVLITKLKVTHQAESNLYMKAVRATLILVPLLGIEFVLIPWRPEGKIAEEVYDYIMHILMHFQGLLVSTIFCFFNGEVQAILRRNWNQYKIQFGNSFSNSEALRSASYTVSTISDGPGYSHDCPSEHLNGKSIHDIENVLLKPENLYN
# T1 sequence (O60894 27-148): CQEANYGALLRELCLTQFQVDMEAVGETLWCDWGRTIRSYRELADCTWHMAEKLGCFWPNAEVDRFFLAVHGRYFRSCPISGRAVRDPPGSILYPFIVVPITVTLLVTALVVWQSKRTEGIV
row,Structure (SMILES),Ki
1,CN1C[C@@](C)(c2cc(F)cc(F)c2)N(C/C=C/c2ccc3c(c2)C[C@@]2(C3)C(=O)Nc3ncccc32)C(=O)C12CCCC2 [Example 8],< 50 µM
2,CN1C[C@@](C)(c2cc(F)cc(F)c2)N(CCCc2ccc3c(c2)C[C@@]2(C3)C(=O)Nc3ncccc32)C(=O)C12CCCC2 [Example 9],< 50 µM
3,C[C@@]1(c2cc(F)cc(F)c2)CNC2(CCCC2)C(=O)N1CCOc1ccc2c(c1)C[C@@]1(C2)C(=O)Nc2ncccc21 [Example 13],< 50 µM
4,CN1C[C@@](C)(c2cc(F)cc(F)c2)N(CCOc2ccc3c(c2)C[C@@]2(C3)C(=O)Nc3ncccc32)C(=O)C12CCCC2 [Example 15],< 50 µM
